ChEMBL document CHEMBL4725309, “Potent, non-covalent reversible BTK inhibitors with 8-amino-imidazo[1,5-a]pyrazine core featuring 3-position bicyclic ring substitutes” (Bioorg Med Chem Lett, 2020)

What was measured:
[1] = biological target: Tyrosine-protein kinase Blk (Homo sapiens, UniProt P51451); test: Inhibition of BLK (unknown origin)
[2] = biological target: T1, Cytoplasmic tyrosine-protein kinase BMX (Homo sapiens, UniProt P51813); test: Inhibition of BMX (unknown origin)
T1 sequence (P51813 whole entry): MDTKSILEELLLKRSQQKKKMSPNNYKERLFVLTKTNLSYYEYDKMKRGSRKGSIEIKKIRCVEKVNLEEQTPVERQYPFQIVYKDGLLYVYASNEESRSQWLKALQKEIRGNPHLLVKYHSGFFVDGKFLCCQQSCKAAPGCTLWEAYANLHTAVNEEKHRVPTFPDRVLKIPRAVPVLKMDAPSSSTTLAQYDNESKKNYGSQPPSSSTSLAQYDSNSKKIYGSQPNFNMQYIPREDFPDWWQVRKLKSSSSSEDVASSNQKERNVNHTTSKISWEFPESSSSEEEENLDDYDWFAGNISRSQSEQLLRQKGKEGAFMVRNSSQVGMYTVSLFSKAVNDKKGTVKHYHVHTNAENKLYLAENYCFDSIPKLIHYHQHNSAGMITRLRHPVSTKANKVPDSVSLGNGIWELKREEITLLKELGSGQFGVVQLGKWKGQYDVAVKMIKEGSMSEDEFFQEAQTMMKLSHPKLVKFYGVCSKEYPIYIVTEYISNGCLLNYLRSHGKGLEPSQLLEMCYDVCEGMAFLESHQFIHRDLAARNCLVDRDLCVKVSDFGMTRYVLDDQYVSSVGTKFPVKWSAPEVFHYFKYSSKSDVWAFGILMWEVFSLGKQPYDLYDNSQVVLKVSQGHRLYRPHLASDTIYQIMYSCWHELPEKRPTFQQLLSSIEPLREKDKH

[3] = biological target: Tyrosine-protein kinase CSK (Homo sapiens, UniProt P41240); test: Inhibition of CSK (unknown origin)
[4] = biological target: Receptor tyrosine-protein kinase erbB-4 (Homo sapiens, UniProt Q15303); test: Inhibition of ERBB4 (unknown origin)
[5] = biological target: Tyrosine-protein kinase Fgr (Homo sapiens, UniProt P09769); test: Inhibition of FGR (unknown origin)
[6] = biological target: Tyrosine-protein kinase FRK (Homo sapiens, UniProt P42685); test: Inhibition of FRK (unknown origin)
[7] = biological target: Tyrosine-protein kinase Fyn (Homo sapiens, UniProt P06241); test: Inhibition of FYN (unknown origin)
[8] = biological target: Tyrosine-protein kinase Lck (Homo sapiens, UniProt P06239); test: Inhibition of LCK (unknown origin)
[9] = biological target: Tyrosine-protein kinase Lyn (Homo sapiens, UniProt P07948); test: Inhibition of LYNB (unknown origin)
[10] = biological target: Protein-tyrosine kinase 6 (Homo sapiens, UniProt Q13882); test: Inhibition of PTK6 (unknown origin)
[11] = biological target: Proto-oncogene tyrosine-protein kinase Src (Homo sapiens, UniProt P12931); test: Inhibition of SRC (unknown origin)
[12] = biological target: Tyrosine-protein kinase Srms (Homo sapiens, UniProt Q9H3Y6); test: Inhibition of SRMS (unknown origin)
[13] = biological target: T2, Tyrosine-protein kinase Tec (Homo sapiens, UniProt P42680); test: Inhibition of TEC (unknown origin)
T2 sequence (P42680 whole entry): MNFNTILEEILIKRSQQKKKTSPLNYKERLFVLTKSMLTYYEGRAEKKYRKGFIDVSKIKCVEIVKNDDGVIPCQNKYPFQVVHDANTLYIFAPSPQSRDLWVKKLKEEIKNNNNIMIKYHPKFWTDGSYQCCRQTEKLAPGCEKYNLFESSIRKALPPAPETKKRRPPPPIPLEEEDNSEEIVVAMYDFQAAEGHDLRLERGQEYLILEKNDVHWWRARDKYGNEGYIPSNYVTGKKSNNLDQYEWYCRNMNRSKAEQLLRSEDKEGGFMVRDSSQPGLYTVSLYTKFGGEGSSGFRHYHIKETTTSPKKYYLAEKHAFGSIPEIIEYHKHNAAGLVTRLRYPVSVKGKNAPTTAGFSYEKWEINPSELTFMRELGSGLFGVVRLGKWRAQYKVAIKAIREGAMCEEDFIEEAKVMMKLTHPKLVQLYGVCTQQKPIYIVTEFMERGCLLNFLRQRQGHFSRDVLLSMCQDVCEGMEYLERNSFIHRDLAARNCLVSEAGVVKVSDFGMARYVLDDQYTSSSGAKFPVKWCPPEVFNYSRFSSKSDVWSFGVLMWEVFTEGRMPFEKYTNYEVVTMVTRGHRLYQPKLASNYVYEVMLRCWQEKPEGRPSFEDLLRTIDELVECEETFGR

[14] = biological target: T3, Tyrosine-protein kinase TXK (Homo sapiens, UniProt P42681); test: Inhibition of TXK (unknown origin)
T3 sequence (P42681 whole entry): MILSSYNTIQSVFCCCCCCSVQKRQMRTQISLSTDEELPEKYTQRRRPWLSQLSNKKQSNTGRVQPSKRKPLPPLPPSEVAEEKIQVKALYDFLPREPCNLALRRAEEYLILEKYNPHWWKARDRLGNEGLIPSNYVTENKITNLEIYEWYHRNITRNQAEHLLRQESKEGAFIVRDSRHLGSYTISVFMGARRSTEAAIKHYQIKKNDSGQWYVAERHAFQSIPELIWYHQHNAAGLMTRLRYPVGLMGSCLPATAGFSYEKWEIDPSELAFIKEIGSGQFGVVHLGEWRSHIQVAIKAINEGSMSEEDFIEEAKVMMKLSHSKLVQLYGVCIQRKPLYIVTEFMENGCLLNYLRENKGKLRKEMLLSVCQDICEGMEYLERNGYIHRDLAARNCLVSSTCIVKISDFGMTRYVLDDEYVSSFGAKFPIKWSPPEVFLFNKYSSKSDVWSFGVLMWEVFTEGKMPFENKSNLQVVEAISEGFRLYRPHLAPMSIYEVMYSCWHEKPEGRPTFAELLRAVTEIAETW

[15] = biological target: Tyrosine-protein kinase Yes (Homo sapiens, UniProt P07947); test: Inhibition of YES1 (unknown origin)
[16] = Clearance in Wistar Han rat at 2 mg/kg, iv; assay type: ADME, organism-based; details: in vivo
[17] = Volume of distribution at steady state in Wistar Han rat at 2 mg/kg, iv; assay type: ADME, organism-based; details: in vivo, read-out: Vdss
[18] = AUC in Wistar Han rat at 2 mg/kg, iv; assay type: ADME, organism-based; parameters: dose 2 mg/kg; details: in vivo
[19] = Half life in Wistar Han rat at 2 mg/kg, iv; assay type: ADME, organism-based; details: in vivo
[20] = Cmax in Wistar Han rat at 5 mg/kg, po; assay type: ADME, organism-based; parameters: route oral, dose 5 mg/kg; details: in vivo
[21] = Tmax in Wistar Han rat at 5 mg/kg, po; assay type: ADME, organism-based; details: in vivo
[22] = Oral bioavailability in Wistar Han rat at 5 mg/kg; assay type: ADME, organism-based; details: Wistar Han, in vivo
[23] = Clearance in Beagle dog at 1 mg/kg, iv; assay type: ADME, organism-based, Canis lupus familiaris; details: in vivo
[24] = Volume of distribution at steady state in Beagle dog at 1 mg/kg, iv; assay type: ADME, organism-based, Canis lupus familiaris; details: in vivo, read-out: Vdss
[25] = AUC in Beagle dog at 1 mg/kg, iv; assay type: ADME, organism-based, Canis lupus familiaris; parameters: dose 1 mg/kg; details: in vivo
[26] = Half life in Beagle dog at 1 mg/kg, iv; assay type: ADME, organism-based, Canis lupus familiaris; details: in vivo
[27] = Cmax in Beagle dog at 2 mg/kg, po; assay type: ADME, organism-based, Canis lupus familiaris; parameters: route oral, dose 2 mg/kg; details: in vivo
[28] = Tmax in Beagle dog at 2 mg/kg, po; assay type: ADME, organism-based, Canis lupus familiaris; details: in vivo
[29] = Oral bioavailability in Beagle dog at 2 mg/kg; assay type: ADME, organism-based, Canis lupus familiaris; details: in vivo
Rattus norvegicus = test: Antiarthritic activity in Lewis rat model of collagen-induced arthritis assessed as decrease in paw thickness at 15 to 120 mg/kg, po qd and measured for 30 days; assay type: functional, organism-based; details: dose mg/kg 15-120, time 30.0 day

Sequence of Receptor tyrosine-protein kinase erbB-4 (Q15303 whole entry): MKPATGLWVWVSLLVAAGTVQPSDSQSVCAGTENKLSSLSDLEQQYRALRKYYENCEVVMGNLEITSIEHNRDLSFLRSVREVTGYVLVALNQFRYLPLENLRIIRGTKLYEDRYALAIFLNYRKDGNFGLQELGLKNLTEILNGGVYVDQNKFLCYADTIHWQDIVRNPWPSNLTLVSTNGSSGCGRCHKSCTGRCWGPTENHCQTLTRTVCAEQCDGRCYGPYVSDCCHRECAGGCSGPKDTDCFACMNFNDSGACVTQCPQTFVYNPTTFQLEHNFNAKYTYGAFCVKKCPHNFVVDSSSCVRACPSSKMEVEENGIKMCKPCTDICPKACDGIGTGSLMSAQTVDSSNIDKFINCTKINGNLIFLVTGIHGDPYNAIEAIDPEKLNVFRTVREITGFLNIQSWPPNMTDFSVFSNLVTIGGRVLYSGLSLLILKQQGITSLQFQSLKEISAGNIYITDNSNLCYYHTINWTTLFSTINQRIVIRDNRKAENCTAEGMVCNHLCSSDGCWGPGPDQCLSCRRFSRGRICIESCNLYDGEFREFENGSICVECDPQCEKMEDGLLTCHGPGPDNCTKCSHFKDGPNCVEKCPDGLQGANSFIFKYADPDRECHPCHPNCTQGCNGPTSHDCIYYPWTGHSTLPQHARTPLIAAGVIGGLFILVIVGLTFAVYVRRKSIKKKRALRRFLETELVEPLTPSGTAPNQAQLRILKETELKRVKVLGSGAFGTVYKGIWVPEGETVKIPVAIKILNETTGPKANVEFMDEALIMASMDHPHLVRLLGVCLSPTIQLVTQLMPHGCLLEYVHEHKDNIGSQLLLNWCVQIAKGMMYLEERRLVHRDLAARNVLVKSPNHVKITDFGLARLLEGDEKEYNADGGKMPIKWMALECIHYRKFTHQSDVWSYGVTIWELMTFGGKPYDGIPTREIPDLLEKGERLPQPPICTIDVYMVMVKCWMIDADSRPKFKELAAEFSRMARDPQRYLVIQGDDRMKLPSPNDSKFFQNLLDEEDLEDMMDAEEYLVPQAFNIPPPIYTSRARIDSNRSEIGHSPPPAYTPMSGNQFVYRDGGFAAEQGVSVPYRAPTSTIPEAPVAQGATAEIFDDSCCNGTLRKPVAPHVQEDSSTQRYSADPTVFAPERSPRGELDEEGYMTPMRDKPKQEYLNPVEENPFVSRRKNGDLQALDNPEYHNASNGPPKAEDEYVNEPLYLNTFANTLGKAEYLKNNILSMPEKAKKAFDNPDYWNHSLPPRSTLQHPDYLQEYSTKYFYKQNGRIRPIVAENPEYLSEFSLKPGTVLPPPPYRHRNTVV
Sequence of Tyrosine-protein kinase Lyn (P07948 whole entry): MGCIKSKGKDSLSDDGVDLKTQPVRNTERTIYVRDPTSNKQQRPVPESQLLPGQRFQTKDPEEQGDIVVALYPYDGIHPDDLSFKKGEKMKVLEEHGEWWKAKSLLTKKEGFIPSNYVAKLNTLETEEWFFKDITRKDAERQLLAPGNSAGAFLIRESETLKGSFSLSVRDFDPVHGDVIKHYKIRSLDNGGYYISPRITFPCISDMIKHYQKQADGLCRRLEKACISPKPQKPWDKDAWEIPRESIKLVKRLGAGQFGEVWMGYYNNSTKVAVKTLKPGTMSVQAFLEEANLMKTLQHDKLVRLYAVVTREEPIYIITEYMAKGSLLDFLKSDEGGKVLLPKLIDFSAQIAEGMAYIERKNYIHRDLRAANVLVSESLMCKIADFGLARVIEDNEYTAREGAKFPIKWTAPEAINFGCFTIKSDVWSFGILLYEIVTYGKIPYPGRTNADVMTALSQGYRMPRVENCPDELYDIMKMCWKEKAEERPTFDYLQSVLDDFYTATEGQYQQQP
Sequence of Tyrosine-protein kinase Fyn (P06241 whole entry): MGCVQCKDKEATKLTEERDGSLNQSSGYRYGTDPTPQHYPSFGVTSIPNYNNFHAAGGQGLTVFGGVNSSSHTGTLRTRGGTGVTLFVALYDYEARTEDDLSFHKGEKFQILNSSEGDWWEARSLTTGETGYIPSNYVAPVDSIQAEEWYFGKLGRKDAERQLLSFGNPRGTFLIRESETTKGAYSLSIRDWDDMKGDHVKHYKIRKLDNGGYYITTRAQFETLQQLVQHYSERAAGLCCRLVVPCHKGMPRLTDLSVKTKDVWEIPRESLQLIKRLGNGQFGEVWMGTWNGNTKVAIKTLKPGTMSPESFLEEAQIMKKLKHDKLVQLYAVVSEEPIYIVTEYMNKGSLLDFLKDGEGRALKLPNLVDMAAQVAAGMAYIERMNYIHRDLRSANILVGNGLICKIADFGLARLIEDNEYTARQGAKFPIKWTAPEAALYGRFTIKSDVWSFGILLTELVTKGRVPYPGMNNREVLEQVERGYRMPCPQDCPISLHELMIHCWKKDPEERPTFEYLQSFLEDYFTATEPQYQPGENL
Sequence of Tyrosine-protein kinase FRK (P42685 whole entry): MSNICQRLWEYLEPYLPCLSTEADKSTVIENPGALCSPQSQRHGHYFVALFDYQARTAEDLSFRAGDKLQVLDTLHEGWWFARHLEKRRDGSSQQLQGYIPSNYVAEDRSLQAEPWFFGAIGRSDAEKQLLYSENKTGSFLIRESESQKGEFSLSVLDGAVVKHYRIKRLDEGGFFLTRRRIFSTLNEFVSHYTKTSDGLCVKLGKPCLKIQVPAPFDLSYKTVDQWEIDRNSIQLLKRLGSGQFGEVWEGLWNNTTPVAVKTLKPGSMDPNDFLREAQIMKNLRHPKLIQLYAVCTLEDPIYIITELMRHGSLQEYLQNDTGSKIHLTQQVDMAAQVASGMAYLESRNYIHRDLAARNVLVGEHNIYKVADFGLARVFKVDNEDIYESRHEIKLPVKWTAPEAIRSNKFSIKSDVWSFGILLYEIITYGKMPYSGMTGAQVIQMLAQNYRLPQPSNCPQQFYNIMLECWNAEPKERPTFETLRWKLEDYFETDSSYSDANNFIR
Sequence of Tyrosine-protein kinase Fgr (P09769 whole entry): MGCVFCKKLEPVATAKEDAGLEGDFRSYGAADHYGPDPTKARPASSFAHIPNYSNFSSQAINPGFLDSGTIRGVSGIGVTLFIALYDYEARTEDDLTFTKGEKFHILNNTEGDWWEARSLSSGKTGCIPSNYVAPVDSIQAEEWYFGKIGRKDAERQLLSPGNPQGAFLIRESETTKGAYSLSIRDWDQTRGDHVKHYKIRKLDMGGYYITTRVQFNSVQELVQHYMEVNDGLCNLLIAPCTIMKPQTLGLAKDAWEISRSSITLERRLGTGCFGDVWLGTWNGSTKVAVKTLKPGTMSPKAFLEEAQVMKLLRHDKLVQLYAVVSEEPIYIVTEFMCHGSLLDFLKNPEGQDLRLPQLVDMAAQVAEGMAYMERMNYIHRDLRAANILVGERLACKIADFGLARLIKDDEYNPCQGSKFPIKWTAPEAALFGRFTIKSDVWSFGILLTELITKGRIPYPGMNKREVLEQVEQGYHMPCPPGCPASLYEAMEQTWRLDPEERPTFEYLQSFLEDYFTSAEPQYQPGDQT
Sequence of Protein-tyrosine kinase 6 (Q13882 whole entry): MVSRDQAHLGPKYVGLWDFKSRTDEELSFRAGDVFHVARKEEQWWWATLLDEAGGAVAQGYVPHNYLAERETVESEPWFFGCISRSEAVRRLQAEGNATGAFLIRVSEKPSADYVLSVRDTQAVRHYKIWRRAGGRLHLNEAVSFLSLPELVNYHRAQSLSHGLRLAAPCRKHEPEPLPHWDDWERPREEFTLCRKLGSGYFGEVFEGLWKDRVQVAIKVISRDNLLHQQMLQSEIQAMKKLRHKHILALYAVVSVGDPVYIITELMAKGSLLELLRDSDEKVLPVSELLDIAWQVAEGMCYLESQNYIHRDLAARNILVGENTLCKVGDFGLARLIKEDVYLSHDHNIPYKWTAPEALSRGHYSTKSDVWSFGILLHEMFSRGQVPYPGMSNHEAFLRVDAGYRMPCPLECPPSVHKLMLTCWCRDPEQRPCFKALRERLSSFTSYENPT
Sequence of Tyrosine-protein kinase Blk (P51451 whole entry): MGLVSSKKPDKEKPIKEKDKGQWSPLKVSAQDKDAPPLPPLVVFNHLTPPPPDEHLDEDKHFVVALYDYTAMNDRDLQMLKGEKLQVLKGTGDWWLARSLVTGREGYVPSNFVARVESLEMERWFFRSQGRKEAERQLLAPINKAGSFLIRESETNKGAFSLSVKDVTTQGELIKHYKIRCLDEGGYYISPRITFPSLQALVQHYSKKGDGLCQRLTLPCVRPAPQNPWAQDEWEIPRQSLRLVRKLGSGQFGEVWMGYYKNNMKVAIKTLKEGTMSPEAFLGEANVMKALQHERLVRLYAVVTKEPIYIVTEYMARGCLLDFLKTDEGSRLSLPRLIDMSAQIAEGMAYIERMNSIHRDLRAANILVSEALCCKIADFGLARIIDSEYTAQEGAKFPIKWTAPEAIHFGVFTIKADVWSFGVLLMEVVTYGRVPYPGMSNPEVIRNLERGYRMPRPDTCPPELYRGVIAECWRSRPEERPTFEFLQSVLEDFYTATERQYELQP
Sequence of Tyrosine-protein kinase Yes (P07947 whole entry): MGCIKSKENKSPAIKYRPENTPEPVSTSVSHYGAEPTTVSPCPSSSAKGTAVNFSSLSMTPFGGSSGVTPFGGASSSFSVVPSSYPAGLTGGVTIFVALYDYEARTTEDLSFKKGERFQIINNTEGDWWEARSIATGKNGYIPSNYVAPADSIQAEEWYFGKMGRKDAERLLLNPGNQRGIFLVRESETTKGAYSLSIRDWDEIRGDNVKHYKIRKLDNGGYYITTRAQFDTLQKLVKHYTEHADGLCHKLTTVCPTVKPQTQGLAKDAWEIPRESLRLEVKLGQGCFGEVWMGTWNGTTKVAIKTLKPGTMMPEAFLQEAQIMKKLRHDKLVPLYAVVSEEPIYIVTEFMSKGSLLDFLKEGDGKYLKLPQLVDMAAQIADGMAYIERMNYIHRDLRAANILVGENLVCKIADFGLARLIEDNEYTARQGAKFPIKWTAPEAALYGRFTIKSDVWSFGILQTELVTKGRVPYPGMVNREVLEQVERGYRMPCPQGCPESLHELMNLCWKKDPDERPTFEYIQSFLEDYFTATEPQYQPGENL

Work on `COc1cc(C(=O)Nc2cc(C(F)(F)F)ccn2)ccc1-c1nc([C@@H]2CC[C@H]3CCC(=O)N3C2)n2ccnc(N)c12` yielded an IC50 [1] of 101 nM, an IC50 [2] of 19 nM and an IC50 [3] of 227 nM. It also gave an IC50 [4] of 160 nM, an IC50 [5] of 64 nM and an IC50 [6] of 154 nM. It also gave an IC50 [7] of 1230 nM, an IC50 [8] of 26 nM and an IC50 [9] of 162 nM. For the same compound, the IC50 [10] was 84 nM, the IC50 [11] was 71 nM and the IC50 [12] was 16 nM. It also gave an IC50 [13] of 67 nM, an IC50 [14] of 102 nM and an IC50 [15] of 54 nM. It also gave a clearance [16] of 53 mL/min/kg, a Vd [17] of 4 L/kg and an AUC [18] of 1.1 µM·h. The half-life [19] was 3 h, the Cmax [20] was 50 nM and the Tmax [21] was 2.1 h. For the same compound, the bioavailability [22] was 9.5%, the clearance [23] was 20 mL/min/kg and the Vd [24] was 3 L/kg. For the same compound, the AUC [25] was 1.6 µM·h, the half-life [26] was 3.4 h and the Cmax [27] was 1100 nM. For the same compound, the Tmax [28] was 1.5 h, the bioavailability [29] was 108% and the Activity (Rattus norvegicus) was “Dose-dependent effect”.
